Data from US20230278972A1, “SUBSTITUTED HALOALKYL SULFONANILIDE HERBICIDES” (FMC Corporation, priority 2020, published 2023).
Where two headings read alike, the source gives them in different places.

Tests used:
Type in all cases: in vivo
[1] = tested on: blackgrass (Alopecurus myosuroides); test: Test A postemergence, blackgrass; settings: Alopecurus myosuroides, post-emergence, 240 h, Postemergence, 0 to 100 scale (0 no effect, 100 complete control); for pest or weed control at 125 g/ha: 125 g ai/ha; for pest or weed control at 500 g/ha: 500 g ai/ha
Outline: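 Preemergence: seeded pots of loam plus sand received a directed soil spray. Postemergence: seedlings at one to two leaves, 2 to 10 cm high, were oversprayed. Each compound was formulated in a non-phytotoxic solvent mix that included a surfactant.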

[2] = tested on: wheat (Triticum aestivum); test: Test A postemergence, wheat; settings: Triticum aestivum, post-emergence, 240 h, Postemergence, 0 to 100 scale (0 no effect, 100 complete control); for plant injury at 125 g/ha: 125 g ai/ha; for plant injury at 500 g/ha: 500 g ai/ha
Outline: (§1)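 Preemergence: pigweed seeds in loam soil–sand blend received a directed soil spray of test chemicals in a non-phytotoxic solvent with surfactant. Postemergence: barnyardgrass, wheat and galium in pots of the same soil, 2 to 10 cm tall at one- to two-leaf stage, sprayed with the same formulation.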

[3] = tested on: barnyardgrass (Echinochloa crus-galli); test: Test A postemergence, barnyardgrass; settings: Echinochloa crus-galli, post-emergence, 240 h, Postemergence, 0 to 100 scale (0 no effect, 100 complete control); for pest or weed control at 125 g/ha: 125 g ai/ha; for pest or weed control at 500 g/ha: 500 g ai/ha
Outline: as §1

[4] = visual injury approx. 10 days, read-out: Plant response rating, Blackgrass
[5] = visual injury, approx. 10 days, read-out: Plant response rating, Blackgrass
[6] = visual injury approx. 10 days, read-out: Plant response rating, Wheat
[7] = visual injury, approx. 10 days, read-out: Plant response rating, Wheat
[8] = visual injury approx. 10 days, read-out: Plant response rating, Barnyardgrass
[9] = visual injury, approx. 10 days, read-out: Plant response rating, Barnyardgrass
[10] = visual injury vs untreated controls after approx. 10 days, read-out: Blackgrass plant response rating
[11] = visual injury vs untreated controls after approx. 10 days, read-out: Wheat plant response rating
[12] = visual injury vs untreated controls after approx. 10 days, read-out: Barnyardgrass plant response rating
[13] = read-out: Plant response rating, Blackgrass
[14] = read-out: Plant response rating, Wheat
[15] = read-out: Plant response rating, Barnyardgrass

SMILES: CCc1cc(-c2cc(NS(=O)(=O)C(F)(F)F)c(C)cc2C)c(=O)n(C)n1 [Compound 34, N-[5-(6-Ethyl-2,3-dihydro-2-methyl-3-oxo-4-pyridazinyl)-2,4-dimethylphenyl]-1,1,1-trifluoromethanesulfonamide]
- pest or weed control at 125 g/ha [1, 4]: 0%
- pest or weed control at 500 g/ha [1, 5]: 0%
- plant injury at 125 g/ha [2, 6]: 0%
- plant injury at 500 g/ha [2, 7]: 0%
- pest or weed control at 125 g/ha [3, 8]: 0%
- pest or weed control at 500 g/ha [3, 9]: 0%

SMILES: Cc1cc(C)c(C2=NOC3CCOCC23)cc1NS(=O)(=O)C(F)(F)F (centres unmarked) [Compound 120, N-[2,4-Dimethyl-5-(3a,6,7,7a-tetrahydro-4H-pyrano[3,4-d]isoxazol-3-yl)phenyl]-1,1,1-trifluoromethanesulfonamide]
- pest or weed control at 125 g/ha [1, 4]: 20%
- pest or weed control at 500 g/ha [1, 10]: 70%
- plant injury at 125 g/ha [2, 6]: 70%
- plant injury at 500 g/ha [2, 11]: 70%
- pest or weed control at 125 g/ha [3, 8]: 90%
- pest or weed control at 500 g/ha [3, 12]: 90%

SMILES: Cc1cc(C)c(C(=O)N2CCC(F)(F)CC2)cc1NS(=O)(=O)C(F)(F)F [Compound 241, N-[5-[(4,4-Difluoro-1-piperidinyl)carbonyl]-2,4-dimethylphenyl]-1,1,1-trifluoromethanesulfonamide]
- pest or weed control at 125 g/ha [1, 13]: 0%
- pest or weed control at 500 g/ha [1, 4]: 80%
- plant injury at 125 g/ha [2, 14]: 30%
- plant injury at 500 g/ha [2, 6]: 70%
- pest or weed control at 125 g/ha [3, 15]: 60%
- pest or weed control at 500 g/ha [3, 8]: 90%

SMILES: Cc1cc(Cl)c(NS(=O)(=O)C(F)(F)F)cc1C(=O)N1CCCCC1 [Compound 18, N-[2-Chloro-4-methyl-5-(1-piperidinylcarbonyl)phenyl]-1,1,1-trifluoromethanesulfonamide]
- pest or weed control at 125 g/ha [1, 4]: 0%
- pest or weed control at 500 g/ha [1, 5]: 0%
- plant injury at 125 g/ha [2, 6]: 0%
- plant injury at 500 g/ha [2, 7]: 70%
- pest or weed control at 125 g/ha [3, 8]: 0%
- pest or weed control at 500 g/ha [3, 9]: 70%

SMILES: Cc1cc(Cl)c(NS(=O)(=O)C(F)(F)F)cc1C(=O)N1CCC(F)(F)CC1 [Compound 229, N-[2-Chloro-5-[(4,4-difluoro-1-piperidinyl)carbonyl]-4-methylphenyl]-1,1,1-trifluoromethanesulfonamide]
- pest or weed control at 125 g/ha [1, 13]: 20%
- pest or weed control at 500 g/ha [1, 10]: 70%
- plant injury at 125 g/ha [2, 14]: 60%
- plant injury at 500 g/ha [2, 11]: 70%

SMILES: Cc1cc(C)c(N(COC(=O)C(C)(C)C)S(=O)(=O)C(F)(F)F)cc1C1=NO[C@@H]2CCC[C@H]12 [Compound 100, [[2,4-Dimethyl-5-[(3aR,6aR)-3a,5,6,6a-tetrahydro-4H-cyclopent[d]isoxazol-3-yl]phenyl][(trifluoromethyl)sulfonyl]amino]methyl 2,2-dimethylpropanoate]
- pest or weed control at 125 g/ha [1, 4]: 0%
- pest or weed control at 500 g/ha [1, 10]: 0%
- plant injury at 125 g/ha [2, 6]: 20%
- plant injury at 500 g/ha [2, 11]: 50%
- pest or weed control at 125 g/ha [3, 8]: 80%
- pest or weed control at 500 g/ha [3, 12]: 90%

SMILES: Cc1cc(Cl)c(NS(=O)(=O)C(F)(F)F)cc1C(=O)N1CCOCC1 [Compound 16, N-[2-Chloro-4-methyl-5-(4-morpholinylcarbonyl)phenyl]-1,1,1-trifluoromethanesulfonamide]
- pest or weed control at 125 g/ha [1, 4]: 50%
- pest or weed control at 500 g/ha [1, 5]: 40%
- plant injury at 125 g/ha [2, 6]: 50%
- plant injury at 500 g/ha [2, 7]: 70%
- pest or weed control at 125 g/ha [3, 8]: 60%
- pest or weed control at 500 g/ha [3, 9]: 90%

SMILES: Cc1cc(C)c(C2=NOC3(CCCC3)C2)cc1NS(=O)(=O)C(F)(F)F [Compound 207, N-[2,4-Dimethyl-5-(1-oxa-2-azaspiro[4.4]non-2-en-3-yl)phenyl]-1,1,1-trifluoromethanesulfonamide]
- pest or weed control at 125 g/ha [1, 13]: 20%
- pest or weed control at 500 g/ha [1, 10]: 60%
- plant injury at 125 g/ha [2, 14]: 60%
- plant injury at 500 g/ha [2, 11]: 70%
- pest or weed control at 125 g/ha [3, 15]: 60%
- pest or weed control at 500 g/ha [3, 12]: 80%

SMILES: Cc1cc(C)c(C2=NO[C@@H]3CCC[C@H]23)cc1NS(=O)(=O)C(F)(F)F [Compound 103, N-[2,4-Dimethyl-5-[(3aR,6aR)-3a,5,6,6a-tetrahydro-4H-cyclopent[d]isoxazol-3-yl]phenyl]-1,1,1-trifluoromethanesulfonamide]
- pest or weed control at 125 g/ha [1, 4]: 0%
- pest or weed control at 500 g/ha [1, 10]: 30%
- plant injury at 125 g/ha [2, 6]: 60%
- plant injury at 500 g/ha [2, 11]: 80%
- pest or weed control at 125 g/ha [3, 8]: 90%
- pest or weed control at 500 g/ha [3, 12]: 90%

SMILES: Cc1cc(C)c(C2=NOC3(CCCCC3)C2)cc1NS(=O)(=O)C(F)(F)F [Compound 197, N-[2,4-Dimethyl-5-(1-oxa-2-azaspiro[4.5]dec-2-en-3-yl)phenyl]-1,1,1-trifluoromethanesulfonamide]
- pest or weed control at 125 g/ha [1, 13]: 40%
- pest or weed control at 500 g/ha [1, 10]: 60%
- plant injury at 125 g/ha [2, 14]: 60%
- plant injury at 500 g/ha [2, 11]: 70%
